In publication PMC2954514 (Molecular cancer therapeutics, 2010):
Values joined by “and” are separate entries in the source; they are usually repeats but may differ in a detail not shown here. Equal entries are not always repeated. Where two headings read alike, the source gives them in different places.

Legend:
[1] = system: Bovine brain microtubule protein (MTP); assay: Electron microscopy of polymers formed; format: biochemical
[2] = target: MAP-free bovine brain microtubules (Bos taurus, UniProt Q6B856); assay: Microtubule dynamic instability at plus ends; format: biochemical; details: for Dynamicity, Percent Change (suppression of dynamic instability): 0.1 μmol/L (100 nmol/L) compound vs control; for Dynamicity, Percent Change (suppression of dynamic instability) / Catastrophe Frequency, Percent Change / Growing Lengths, Percent Change / Percent Time Shortening, Percent Change / Rescue Frequency, Percent Change / Shortening Lengths, Percent Change / Shortening Rates, Percent Change / Growing Rates, Percent Change / Percent Time Growing, Percent Change: (−) decrease; for Catastrophe Frequency / Dynamicity / Percent Time Attenuated / Percent Time Growing / Percent Time Shortening / Rescue Frequency / Growing Lengths / Shortening Lengths / Shortening Rates / Growing Rates: 0.1 μmol/L compound; for Percent Time Attenuated (pause), Percent Change / Catastrophe Frequency, Percent Change / Growing Lengths, Percent Change / Percent Time Shortening, Percent Change / Rescue Frequency, Percent Change / Shortening Lengths, Percent Change / Shortening Rates, Percent Change / Growing Rates, Percent Change / Percent Time Growing, Percent Change: 0.1 μmol/L compound vs control; for Percent Time Attenuated (pause), Percent Change / Growing Rates, Percent Change / Percent Time Growing, Percent Change: (+) increase; for Growing Lengths / Shortening Lengths / Shortening Rates / Growing Rates: mean ± SEM; for Growing Rates: plus ends, steady state
[3] = target: Bovine brain microtubule protein (MTP, tubulin and microtubule-associated proteins) (Bos taurus, UniProt Q6B856); assay: Inhibition of microtubule polymerization; format: biochemical; details: for reduction of microtubule polymer mass: 100 nmol/L compound
metastatic breast cancer = details: Phase II, patients with metastatic breast cancer; cited from earlier work
microtubules [4] = details: cited from earlier work
microtubules [5] = details: cited from earlier work; remark: listed apart in the source
[6] = target: steady-state microtubules (MAP-rich); assay: Binding of [3H]S-methyl DM1 to steady-state microtubules; parameters: species or system bovine
[7] = target: soluble bovine brain tubulin (Bos taurus, UniProt Q6B856); assay: Binding to soluble tubulin
rat brain tubulin = details: read-out: KD for tubulin reported previously; cited from earlier work
[8] = 20 μmol/L compound (maytansine: 4 μmol/L and 20 μmol/L)

MAP-free bovine brain microtubules, sequence (Q6B856 whole entry): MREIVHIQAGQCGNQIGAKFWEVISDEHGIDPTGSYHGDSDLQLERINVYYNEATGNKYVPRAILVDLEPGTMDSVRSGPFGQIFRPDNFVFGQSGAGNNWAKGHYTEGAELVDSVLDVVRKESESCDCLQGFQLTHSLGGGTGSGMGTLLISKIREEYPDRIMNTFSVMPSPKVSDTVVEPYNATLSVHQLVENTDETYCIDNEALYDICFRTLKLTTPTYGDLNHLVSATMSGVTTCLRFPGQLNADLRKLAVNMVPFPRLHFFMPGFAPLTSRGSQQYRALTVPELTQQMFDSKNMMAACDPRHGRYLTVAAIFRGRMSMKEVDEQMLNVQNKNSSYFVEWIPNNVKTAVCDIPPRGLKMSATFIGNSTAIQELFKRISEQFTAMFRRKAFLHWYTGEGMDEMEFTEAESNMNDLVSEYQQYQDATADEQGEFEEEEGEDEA
MAP-free bovine brain microtubules, sequence (P81947 whole entry partner): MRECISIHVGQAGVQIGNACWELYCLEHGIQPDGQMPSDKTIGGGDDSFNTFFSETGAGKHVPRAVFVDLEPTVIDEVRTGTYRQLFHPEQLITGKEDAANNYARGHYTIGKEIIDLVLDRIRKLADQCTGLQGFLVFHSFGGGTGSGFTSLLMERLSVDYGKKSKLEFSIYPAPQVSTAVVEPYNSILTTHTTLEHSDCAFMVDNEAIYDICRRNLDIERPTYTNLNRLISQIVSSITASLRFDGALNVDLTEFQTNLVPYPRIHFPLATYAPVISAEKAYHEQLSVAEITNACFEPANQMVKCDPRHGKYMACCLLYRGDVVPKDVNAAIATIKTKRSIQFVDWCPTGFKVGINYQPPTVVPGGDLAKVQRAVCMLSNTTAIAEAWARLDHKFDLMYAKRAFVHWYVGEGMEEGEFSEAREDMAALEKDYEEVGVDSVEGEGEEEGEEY
soluble bovine brain tubulin, sequence (P81947 whole entry): as the sequence (P81947 whole entry partner) above
soluble bovine brain tubulin, sequence (Q6B856 whole entry): as the sequence (Q6B856 whole entry) above
Bovine brain microtubule protein (MTP, tubulin and microtubule-associated proteins), sequence (P81947 whole entry): as the sequence (P81947 whole entry partner) above
Bovine brain microtubule protein (MTP, tubulin and microtubule-associated proteins), sequence (Q6B856 whole entry): as the sequence (Q6B856 whole entry) above

Molecule: COc1cc2cc(c1Cl)N(C)C(=O)C[C@H](OC(=O)[C@H](C)N(C)C(=O)CCC(C)(C)SC)[C@]1(C)O[C@H]1[C@H](C)[C@@H]1C[C@@](O)(NC(=O)O1)[C@H](OC)/C=C/C=C(\C)C2 [S-methyl DM4, N^2'-deacetyl-N^2'-(4-thiomethyl-4-methyl-1-oxopentyl)-maytansine]
- concentrations inducing tubulin aggregates detectable by electron microscopy [1]: ≥ 2 µmol/L
- polymer morphology by electron microscopy ([1]; 2 μmol/L compound): aggregates as well as both normal and also some imperfect, ragged microtubules with loose protofilamentous structure
- polymer morphology by electron microscopy [1, 8]: more extensive aggregation of tubulin occurred with no intact microtubules
- Dynamicity, Percent Change (suppression of dynamic instability) [2]: 73% and 73 (−) %
- Catastrophe Frequency [2]: 0.03 per min
- Dynamicity [2]: 0.35
- Percent Time Attenuated [2]: 80.6%
- Percent Time Growing [2]: 15.2%
- Percent Time Shortening [2]: 4.2%
- Rescue Frequency [2]: 0.50 per min
- Percent Time Attenuated (pause), Percent Change [2]: 30% and 30 (+) %
- Catastrophe Frequency, Percent Change [2]: 90% and 90 (−) %
- Growing Lengths, Percent Change [2]: 16 (−) %
- Percent Time Shortening, Percent Change [2]: 72 (−) %
- Rescue Frequency, Percent Change [2]: 50 (−) %
- Shortening Lengths, Percent Change [2]: 60% and 60 (−) %
- Shortening Rates, Percent Change [2]: 56% and 56 (−) %
- Growing Rates, Percent Change [2]: 24 (−) %
- Percent Time Growing, Percent Change [2]: 34 (−) %
- Growing Lengths [2]: 1.6 ± 0.1 μm/event
- Shortening Lengths [2]: 1.2 ± 0.2 μm/event
- Shortening Rates [2]: 3.9 ± 0.4 μm/min
- Growing Rates [2]: 1.3 ± 0.3 μm/min
- reduction of microtubule polymer mass [3]: less than 3%
- plateau inhibition of polymerization ([3]; between 10 μmol/L and 20 μmol/L): 75%
- plateau of sedimentable polymer, % of the control polymer mass ([3]; between 10 and 20 μmol/L): 25%

Molecule: trastuzumab-DM1
- interim overall response rate (metastatic breast cancer): 39%

Molecule: CC[C@]1(O)C[C@@H]2CN(CCc3c([nH]c4ccccc34)[C@@](C(=O)OC)(c3cc4c(cc3OC)N(C)[C@H]3[C@@](O)(C(=O)OC)[C@H](OC(C)=O)[C@]5(CC)C=CCN6CC[C@]43[C@@H]65)C2)C1 [vinblastine]
- suppression of catastrophe frequency (microtubules [4]; 100 nmol/L): ~ 30%
- suppression of growth rate (microtubules [4]; 100 nmol/L): 34%
- suppression of shortening rate (microtubules [4]; 100 nmol/L): 47%
- enhancement of rescue frequency (microtubules [4]): ~ 200%
- high affinity binding sites per microtubule (microtubules [5]): 16.8 ± 4.3

Molecule: C=C1C[C@@H]2CC[C@@]34C[C@H]5O[C@H]6[C@@H](O3)[C@H]3O[C@H](CC[C@@H]3O[C@H]6[C@H]5O4)CC(=O)C[C@@H]3[C@@H](OC)[C@@H](C[C@H](O)CN)O[C@H]3C[C@H]3O[C@@H](CC[C@@H]1O2)C[C@@H](C)C3=C [eribulin]
- high affinity binding sites per microtubule (microtubules [5]): 14.7 ±1.3

Molecule: COc1cc2cc(c1Cl)N(C)C(=O)C[C@H](OC(=O)[C@H](C)N(C)C(=O)CCSC)[C@]1(C)O[C@H]1[C@H](C)[C@@H]1C[C@@](O)(NC(=O)O1)[C@H](OC)/C=C/C=C(\C)C2 [S-methyl DM1, N^2'-deacetyl-N^2'-(3-thiomethyl-1-oxopropyl)-maytansine]
- KD of low affinity sites, fold higher than high affinity sites [6]: 20 fold
- binding to high affinity sites on microtubules, fold more strongly than vinblastine [6]: 20 fold and 19 fold
- number of low affinity sites [6]: several hundred
- molecules bound per microtubule ([6]; 0.1 μmol/L (100 nmol/L)): 19 ± 1 and 19
- mean length of the microtubules ([6]; 500 nmol/L – 4 μmol/L, standard deviation 4.5 μm): 13.9–14.1 μm
- molecules bound per microtubule or sedimentable aggregate ([6]; 1 μmol/L): approximately 105
- molecules bound per microtubule or sedimentable aggregate ([6]; 4 μmol/L): 210 ± 37 and ~210
- number of high affinity sites per microtubule ([6]; Scatchard X-intercept): 37
- mean length of the microtubules ([6]; between 0 and 100 nmol/L, maximum standard deviation 4 μm): 14.4–14.5 μm
- molecules bound to sedimentable polymer, per microtubule ([6]; concentrations ≥500 nmol/L): 60–210
- decrease of microtubule polymer mass ([6]; pre-assembled MAP-rich microtubules, 1 h, any concentration (0 – 4 μM)): less than 4%
- Kd ([6]; read-out: KD, high affinity sites on microtubules, low drug concentrations (10 nmol/L – 100 nmol/L)): 100 ± 50 nM
- Kd ([6]; read-out: KD, low affinity sites on microtubules and sedimentable aggregates, higher drug concentrations (0.1 μmol/L to 4 μmol/L)): 2200 ± 200 nM
- concentrations inducing tubulin aggregates detectable by electron microscopy [1]: ≥ 2 µmol/L
- polymer morphology by electron microscopy ([1]; 2 μmol/L compound): a small number of small aggregates along with the microtubules
- polymer morphology by electron microscopy [1, 8]: an increase in aggregate formation
- suppression of dynamicity (change) ([2]; 20 nmol/L, data not shown): ~ 6%
- Dynamicity, Percent Change (suppression of dynamic instability) [2]: 84% and 84 (−) %
- Catastrophe Frequency [2]: 0.03 per min
- Dynamicity [2]: 0.21
- Percent Time Attenuated [2]: 87.4%
- Percent Time Growing [2]: 7.3%
- Percent Time Shortening [2]: 5.4%
- Rescue Frequency [2]: 0.56 per min
- Percent Time Attenuated (pause), Percent Change [2]: 41% and 41 (+) %
- Catastrophe Frequency, Percent Change [2]: 90% and 90 (−) %
- Growing Lengths, Percent Change [2]: 47 (−) %
- Percent Time Shortening, Percent Change [2]: 64 (−) %
- Rescue Frequency, Percent Change [2]: 44 (−) %
- Shortening Lengths, Percent Change [2]: 60% and 60 (−) %
- Shortening Rates, Percent Change [2]: 70% and 70 (−) %
- Growing Rates, Percent Change [2]: 24 (−) %
- Percent Time Growing, Percent Change [2]: 70 (−) %
- Growing Lengths [2]: 1 ± 0.1 μm/event
- Shortening Lengths [2]: 1.2 ± 0.2 μm/event
- Shortening Rates [2]: 2.7 ± 0.9 μm/min
- Growing Rates [2]: 1.3 ± 0.4 μm/min
- reduction of microtubule polymer mass [3]: less than 3%
- concentration showing nearly complete inhibition of microtubule polymerization ([3]; MTP 3 mg/mL, 30°C): 20 µmol/L
- Kd ([7]; read-out: equilibrium dissociation constant (KD) for soluble tubulin, 3 μmol/L tubulin, PEM buffer, 45 min, 30°C): 930 nM and 900 nM

Molecule: COc1cc2cc(c1Cl)N(C)C(=O)C[C@H](OC(=O)[C@H](C)N(C)C(C)=O)[C@]1(C)O[C@H]1[C@H](C)[C@@H]1C[C@@](O)(NC(=O)O1)[C@H](OC)/C=C/C=C(\C)C2 [Maytansine, reference compound]
- polymer morphology by electron microscopy ([1]; 2 μmol/L compound): very few microtubules and no aggregates
- polymer morphology by electron microscopy [1, 8]: no microtubules or aggregates
- Dynamicity, Percent Change (suppression of dynamic instability) [2]: 45 (−) %
- Dynamicity, Percent Change (suppression of dynamic instability) ([2]; listed as maytansine): 45%
- Catastrophe Frequency [2]: 0.21 per min
- Dynamicity [2]: 0.72
- Percent Time Attenuated [2]: 65%
- Percent Time Growing [2]: 24%
- Percent Time Shortening [2]: 11%
- Rescue Frequency [2]: 0.60 per min
- Percent Time Attenuated (pause), Percent Change [2]: 5 (+) %
- Percent Time Attenuated (pause), Percent Change ([2]; listed as maytansine): negligible effect
- Catastrophe Frequency, Percent Change [2]: 30 (−) %
- Growing Lengths, Percent Change [2]: 37 (−) %
- Percent Time Shortening, Percent Change [2]: 26 (−) %
- Rescue Frequency, Percent Change [2]: 40% and 40 (−) %
- Shortening Lengths, Percent Change [2]: 40 (−) %
- Shortening Rates, Percent Change [2]: 35% and 35 (−) %
- Growing Rates, Percent Change [2]: 35% and 35 (−) %
- Percent Time Growing, Percent Change [2]: 3.4 (+) %
- Catastrophe Frequency, Percent Change ([2]; listed as maytansine): 30%
- Shortening Lengths, Percent Change ([2]; listed as maytansine): 40%
- Growing Lengths [2]: 1.2 ± 0.1 μm/event
- Shortening Lengths [2]: 1.8 ± 0.9 μm/event
- Shortening Rates [2]: 5.8 ± 0.5 μm/min
- Growing Rates [2]: 1.1 ± 0.2 μm/min
- inhibition at 0.1 µM ([3]; read-out: reduction of microtubule polymer mass): 20%
- Kd (rat brain tubulin): 700 nM
- Kd [7]: 860 ± 200 nM
